{"source": "patent US9597375B2", "about": "“Coagulation and fibrinolytic cascades modulator” (The Board of Trustees of the University of Illinios, priority 2005, dated 2017)", "key": {"TFPI": {"biological_target": "T1, TFPI (Homo sapiens, UniProt P10646)", "T1 construct": "Recombinant, full-length human TFPI was a kind gift of Dr. George Broze; gift of Dr. George Broze, Washington University St. Louis", "T1 sequence (P10646 29-304)": "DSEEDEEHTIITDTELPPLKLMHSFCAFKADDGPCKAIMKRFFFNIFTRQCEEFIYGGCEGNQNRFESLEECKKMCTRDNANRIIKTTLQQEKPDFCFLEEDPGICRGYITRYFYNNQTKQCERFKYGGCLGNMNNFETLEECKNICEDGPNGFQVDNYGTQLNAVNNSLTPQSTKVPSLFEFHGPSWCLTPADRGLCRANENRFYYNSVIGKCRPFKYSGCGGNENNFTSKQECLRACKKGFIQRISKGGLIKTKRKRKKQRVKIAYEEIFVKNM", "type": "biochemical", "procedure": "The hypothesis that polyP might block the anticoagulant effect of TFPI was tested. This was examined in a dilute PT assay in which varying concentrations of recombinant TFPI were added to plasma samples. Plasma normally contains relatively low levels of free TFPI, so adding exogenous TFPI can dramatically lengthen PT clotting times.\nCoagulometer-based plasma clotting assays—Recombinant human tissue factor was reconstituted into phospholipid vesicles as previously described [18], using a mixture of 20% phosphatidylserine and 80% phosphatidylcholine at a phospholipid:tissue factor molar ratio of 8700:1. Blank phospholipid vesicles (PCPS vesicles) composed of 20% phosphatidylserine and 80% phosphatidylcholine (and no tissue factor) were prepared as described [18]. The thromboplastin reagent for the PT assay was prepared by diluting relipidated tissue factor to a final concentration of 200 ng/ml tissue factor in TBSA buffer (50 mM Tris-HCl pH 7.5, 100 mM NaCl, 0.02% sodium azide, 0.1% (w/v) bovine serum albumin). The thromboplastin reagent for the dilute PT assay was prepared in the same manner as the reagent for the PT assay, except that the relipidated tissue factor was typically diluted to a final concentration of 1 ng/ml tissue factor in TBSA buffer containing 50 μM PCPS vesicles.\nThe PT, XaT, aPTT and PTT clotting assays were typically performed in a STart coagulometer (Diagnostica Stago) by pre-incubating 50 μl of human plasma with 50 μl of the indicated clotting reagent at 37° C. for the following times: PT and XaT assays, 120 sec; aPTT and PTT assays, 180 sec. Clotting was then initiated by adding 50 μl of 25 mM calcium chloride solution that had been pre-warmed to 37° C. The time to clot formation was then measured relative to the point of addition of calcium chloride. […] When the effect of TFPI on clotting was tested, TFPI was added to plasma at the indicated concentration immediately before use. When the effect of polyP on clotting was tested, polyP was added to the clotting reagent at the indicated concentration. […]"}, "[1]": {"tested_on": "fibrinolysis in pooled normal plasma", "assay": "Plasma clot lysis model, clotting initiated by calcium ions and thrombin in presence of plasminogen activator", "type": "biochemical, human", "method": "In order to study the effect of polyP on fibrinolysis independent of its effect on clotting times, the model was modified such that clotting was initiated by a mixture of calcium ions and thrombin in the presence of uPA (pooled normal plasma supplemented with 1.4 nM uPA). The amount of thrombin was chosen to yield rapid clotting times, permitting analyses to focus on the lytic phase only. […] In the absence of polyP, the clots subsequently lysed, with a 50% lysis time of 61 min in this experiment. […] The magnitude of the effect of polyP75 on the inhibition of fibrinolysis was dependent on the uPA concentration. At high uPA concentrations the effect of polyP75 could be masked, presumably reflecting a balance situation between uPA and polyP within the clot (data not shown).\nMicroplate-based assays of plasma clotting and fibrinolysis—Some of the clotting assays were conducted in flat-bottom, polystyrene, 96-well plates (Corning). Turbidity, a measure of clot formation, was quantified at 37° C. by measuring the absorbance of light at 405 nm in a VERSAmax microplate reader (Molecular Devices, Sunnyvale, Calif.). Reactions (100 μl final volume) typically contained the following final concentrations: 30% (v/v) human plasma; 8 mM Tris-HCl buffer, pH 7.4; 0.008% (v/v) Tween-20; 10.6 mM calcium chloride; and, variably, 10 nM thrombin. In some experiments, clotting reactions were initiated by calcium ions alone. In this case, a 1.25× reaction mixture of the above-described components (except calcium chloride) was prepared in a final volume of 80 μl per well. Clotting was then initiated by adding 20 μl of 53 mM calcium chloride and absorbance at 405 nm was monitored. In other experiments, clotting was initiated by a mixture of calcium ions and thrombin. In these cases, to the 80 μl reaction mixtures described above were added 10 μl of 106 mM calcium chloride followed immediately by 10 μl of 100 nM thrombin. […]"}, "pooled normal plasma": {"tested_on": "pooled normal plasma", "assay": "Dilute PT assay", "type": "biochemical, human", "method": "The ability of polyP75 to influence the clotting time of a variety of clotting assays was systematically evaluated, employing commonly used plasma clotting assays including the prothrombin time (PT) assay, the partial thromboplastin time (PTT) assay, the activated partial thromboplastin time (aPTT) assay, a factor Xa clotting assay (XaT), and the thrombin time (TT) assay (FIG. 9). The PT assay, which is conducted by adding a thromboplastin reagent (a source of tissue factor activity and calcium ions) to plasma, drives coagulation through the extrinsic, or tissue factor pathway. The PTT and aPTT assays rely on the contact, or intrinsic, pathway of blood clotting. The XaT assay relies on the presence of factor V, prothrombin and fibrinogen in plasma, while the TT assay relies only on the presence of fibrinogen. Therefore, these assays assess different stages of the blood clotting cascades. All were performed in a coagulometer at 37° C.\nCoagulometer-based plasma clotting assays—Recombinant human tissue factor was reconstituted into phospholipid vesicles as previously described, using a mixture of 20% phosphatidylserine and 80% phosphatidylcholine at a phospholipid:tissue factor molar ratio of 8700:1. Blank phospholipid vesicles (PCPS vesicles) composed of 20% phosphatidylserine and 80% phosphatidylcholine (and no tissue factor) were prepared as described. […]\nThe PT, XaT, aPTT and PTT clotting assays were typically performed in a STart coagulometer (Diagnostica Stago) by pre-incubating 50 μl of human plasma with 50 μl of the indicated clotting reagent at 37° C. for the following times: PT and XaT assays, 120 sec; aPTT and PTT assays, 180 sec. […] The time to clot formation was then measured relative to the point of addition of calcium chloride. The TT clotting assay was performed in the same coagulometer as follows: 50 μl human plasma was pre-warmed to 37° C. for 60 sec, after which 50 μl of pre-warmed TT reagent was added and the time to clot formation was measured. […]"}, "[2]": {"conditions": "polyP25-75 at 75 μM phosphate equivalents (FIG. 5), short phosphates data not shown"}}, "note": "“Also recorded” adds a separate entry of the source. Where two headings read alike, the source gives them in different places."}
{"compound": "O=P(O)(O)OP(=O)(O)O", "note": "[PPi, pyrophosphate]", "values": [{"measurement": "blocking of TFPI anticoagulant effect, dependence on chain length", "setting": "TFPI", "value": "did not block TFPI anticoagulant function at all"}, {"measurement": "ability to inhibit fibrinolysis, dependence on chain length", "setting": "[1]; [2]", "value": "no discernable effect on fibrinolysis"}]}
{"compound": "O=P(O)(O)O", "note": "[Pi, sodium phosphate]", "values": [{"measurement": "blocking of TFPI anticoagulant effect, dependence on chain length", "setting": "TFPI", "value": "did not block TFPI anticoagulant function at all"}, {"measurement": "ability to inhibit fibrinolysis, dependence on chain length", "setting": "[1]", "value": "no discernable effect on fibrinolysis"}]}
{"compound": "TFPI: Recombinant, full-length human tissue factor pathway inhibitor", "values": [{"measurement": "dilute PT clotting time", "setting": "pooled normal plasma; 100 ng/ml TFPI added to pooled normal plasma, no polyP (66 sec without TFPI)", "value": "over 160 sec"}, {"measurement": "dilute PT mean clotting time", "setting": "pooled normal plasma; 200 ng/ml TFPI added, no polyP (59 sec without TFPI)", "value": 294, "unit": "s"}, {"measurement": "effect of added TFPI on dilute PT clotting time (in words)", "setting": "pooled normal plasma; TFPI added to pooled normal plasma, no polyP", "value": "greatly prolonged the dilute PT clotting time; also recorded: substantially prolonged"}]}
{"compound": "sodium tripolyphosphate [polyP3]", "values": [{"measurement": "blocking of TFPI anticoagulant effect, dependence on chain length", "setting": "TFPI; 200 ng/ml TFPI, 75 μM phosphate equivalents in dilute thromboplastin reagent (FIG. 12)", "value": "did not block TFPI anticoagulant function at all"}, {"measurement": "ability to inhibit fibrinolysis, dependence on chain length", "setting": "[1]; [2]", "value": "no discernable effect on fibrinolysis"}]}
